Data reported in the NIST ThermoML archive (doi:10.1021/je049867t).
± gives the expanded uncertainty stated by the source.

Assays:
[1] = refractive index (Na D-line) (dimensionless); details: 293.15 K; 101.33 kPa; Liquid; Standard Abbe refractometry
[2] = Liquid
[3] = 308.15 K, Ebulliometric method (Recirculating still)
[4] = 318.15 K, Ebulliometric method (Recirculating still)
[5] = 323.15 K, Ebulliometric method (Recirculating still)

| SMILES | refractive index [1] | vapor or sublimation pressure [2, 3] | vapor or sublimation pressure [2, 4] | vapor or sublimation pressure [2, 5] | vapor or sublimation pressure ([2]; 298.02 K) | vapor or sublimation pressure ([2]; 306.98 K) | vapor or sublimation pressure ([2]; 318.15 K) | vapor or sublimation pressure ([2]; 319.2 K) | vapor or sublimation pressure ([2]; 327.9 K) | vapor or sublimation pressure ([2]; 334.78 K) | vapor or sublimation pressure ([2]; 340.52 K) | vapor or sublimation pressure ([2]; 345.48 K) | vapor or sublimation pressure ([2]; 349.85 K) | vapor or sublimation pressure ([2]; 353.81 K) | vapor or sublimation pressure ([2]; 355.64 K) |
| --- | --- | --- | --- | --- | --- | --- | --- | --- | --- | --- | --- | --- | --- | --- | --- |
| COC(C)(C)C [2-methoxy-2-methylpropane] | 1.3698 ± 0.0007 | 49.48 ± 0.15 kPa | 71.41 ± 0.17 kPa | 84.91 ± 0.18 kPa |  |  |  |  |  |  |  |  |  |  |  |
| Cc1ccccc1 [toluene] | 1.4965 ± 0.0007 | 6.18 ± 0.1 kPa | 9.88 ± 0.1 kPa | 12.28 ± 0.1 kPa |  |  |  |  |  |  |  |  |  |  |  |
| CCC(C)(C)OC [2-methoxy-2-methylbutane] | 1.3862 ± 0.0009 |  |  |  | 10 ± 0.09 kPa | 15 ± 0.1 kPa | 23.99 ± 0.19 kPa | 25 ± 0.13 kPa | 35 ± 0.15 kPa | 45 ± 0.18 kPa | 55 ± 0.21 kPa | 65 ± 0.24 kPa | 75 ± 0.27 kPa | 85 ± 0.3 kPa | 90 ± 0.32 kPa |
